In US6469057B1, “Methods for in vivo reduction of free radical levels and compositions useful therefor” (MCW Research Foundation, Inc., priority 1995, dated 2002):
Entries after “also recorded” stand apart in the source; their conditions may differ.

Legend:
NO [1] = assay: Ex vivo EPR measurement of [(MGD)2/Fe-NO] levels in the urine of normal mice
Procedure: Normal mice housed in a restraining tube were injected subcutaneously with 0.4 ml of the [(MGD)2/Fe] complex (326 mg/Kg of MGD and 34 mg/Kg of FeSO4). After 2 hours, the animals were sacrificed and the urine samples were collected from the urinary bladder. The urine sample, which was dark brown (characteristic of the presence of [(MGD)2/Fe] complex), was transferred to a quartz flat cell for EPR measurement. The spectra were recorded at 22° C. with an X-band EPR spectrometer, operating at 9.5 GHz. Instrument settings include 100-G field scan, 4-min scan time, 0.5-s time constant, 2.5-G modulation amplitude, 100-KHz modulation frequency and 100-mW microwave power. The concentrations of the [(MGD)2/Fe—NO] complex in the urine samples were calculated by comparing the signal intensities obtained from the samples to the signal intensity of a standard solution containing 0.1 mM of the [(MGD)2/Fe—NO] complex.
For inhibition experiments, mice were injected intraperitoneally with 50 mg/kg NMMA in saline immediately after the injection of the [(MGD)2/Fe] complex. In other experiments, mice were injected intravenously with 3 mg/kg dexamethasone in saline about 1.5 h before the injection of the [(MGD)2/Fe] complex. […] Acetylcholine chloride (Sigma) in saline was freshly prepared prior to subcutaneous injection at a dose of 67 mg/kg.
At 2 h after subcutaneous injection of an aliquot (0.4 ml) of the [(MGD)2/Fe] complex (326 mg/Kg of MGD and 34 mg/Kg of FeSO4) into normal mice (A) (and also in the presence of NMMA (50 mg/kg) (B), or of dexamethasone (3 mg/kg) (C)), the animals were sacrificed and the urine samples collected and transferred to a quartz flat cell for X-band (9.5 GHz) EPR measurement at 22° C.

NO [2] = assay: Ex vivo EPR measurement of [(MGD)2/Fe-NO] levels in the urine of LPS-treated mice; settings: for [(MGD)2/Fe-NO] present in LPS-treated mouse urine: urine 2 h later
Procedure: After 2 h, the mouse was sacrificed and the urine sample was collected from the urinary bladder, and immediately transferred to a quartz flat cell for X-band EPR measurement as described above in Example 2B. Inhibition experiments with NMMA or dexamethasone were performed as described above in Example 2A, except that the mice were treated with LPS prior to following the protocols for NO inhibition experiments. The procedures for S-band EPR measurement of wet tissues and blood samples were as described previously (Lai and Komarov, supra).
Thus, at 6 h after LPS treatment, mice were injected with the [(MGD)2/Fe] complex, with and without i.p. injection of NMMA (50 mg/kg). The mice were sacrificed at 2 h after injection of the [(MGD)2/Fe] complex. The urine samples were collected and the EPR measurement was carried out at 22° C.

Row | Structure (SMILES) | [(MGD)2/Fe-NO] present in mouse urine (NO [1]; mouse, in vivo) | increase in urinary [(MGD)2/Fe-NO] levels (NO [1]; normal mice, acetylcholine 67 mg/kg s.c.) [fold] | effect on the [(MGD)2/Fe-NO] EPR signal in urine (NO [1]; normal mice, NMMA 50 mg/kg i.p., dexamethasone 3 mg/kg i.v. pretreatment) | effect on signal intensity of [(MGD)2/Fe-NO] in the urine of LPS-treated mice (NO [2]; NMMA 50 mg/kg i.p. at 6 h after LPS) | [(MGD)2/Fe-NO] present in LPS-treated mouse urine (NO [2]; NMMA 50 mg/kg i.p. at 6 h after LPS just prior to [(MGD)2/Fe]) | [(MGD)2/Fe-NO] present in LPS-treated mouse urine (NO [2]; NMMA 100 mg/kg i.p. at 6 h after LPS just prior to [(MGD)2/Fe])
1 | CC(=O)OCC[N+](C)(C)C.[Cl-] [Acetylcholine, acetylcholine chloride] | 3.9 ± 0.8 (3) μM | 3 |  |  |  | 
2 | CNC(=N)NCCC[C@H](N)C(=O)O [NMMA, N^G-monomethyl-L-arginine] |  |  | markedly reduced | markedly reduces the signal intensity; also recorded: markedly reducing the signal intensity | 3.6 ± 0.9 (4) | 7.3 ± 2.2 (3)
